Measurements taken from patent US20240269139A1, “COMPOUNDS FOR TARGETED PROTEIN DEGRADATION OF KINASES” (DANA-FARBER CANCER INSTITUTE, INC., priority 2020, published 2024).
Values joined by “and” are separate entries in the source; they are usually repeats but may differ in a detail not shown here. Identical values can stand only once. Like-named read-outs stand apart in the source and are kept apart here.

What was measured:
Format in all cases: cell-based
[1] = biological target: protein kinases (human kinome) (Homo sapiens, UniProt P50613); conditions: CDK7 P50613
[2] = biological target: protein kinases (human kinome) (Homo sapiens, UniProt Q00537); conditions: for logFC of CDK17: Accession Q00537; for logFC CDK17 (Q00537): direction of change down
[3] = biological target: protein kinases (human kinome) (Homo sapiens, UniProt P42684); conditions: for logFC: ABL2 (P42684) protein abundance, degrader vs DMSO, down
[4] = biological target: protein kinases (human kinome) (Homo sapiens, UniProt P07947); conditions: YES1 (P07947), experiment wp133, 4 hr
[5] = biological target: protein kinases (human kinome) (Homo sapiens, UniProt O43683); conditions: for logFC: BUB1 (O43683); for logFC BUB1 (O43683): direction down
[6] = biological target: protein kinases (human kinome) (Homo sapiens, UniProt P53667); conditions: LIMK1 (P53667-1)
[7] = biological target: T1, protein kinases (human kinome) (Homo sapiens, UniProt O94768); conditions: for logFC STK17B (O94768): direction down; for logFC: STK17B (O94768)
T1 sequence (O94768 1-372): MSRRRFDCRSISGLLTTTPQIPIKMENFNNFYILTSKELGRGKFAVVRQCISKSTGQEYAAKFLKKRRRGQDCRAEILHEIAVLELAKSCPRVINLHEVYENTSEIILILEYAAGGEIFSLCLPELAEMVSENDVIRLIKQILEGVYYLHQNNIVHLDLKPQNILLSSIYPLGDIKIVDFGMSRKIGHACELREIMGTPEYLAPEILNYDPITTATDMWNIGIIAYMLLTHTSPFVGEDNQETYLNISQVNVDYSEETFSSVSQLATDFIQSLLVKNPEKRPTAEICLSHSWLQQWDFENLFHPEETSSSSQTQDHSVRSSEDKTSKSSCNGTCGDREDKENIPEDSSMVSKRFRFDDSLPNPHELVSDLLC

[8] = biological target: T2, protein kinases (human kinome) (Homo sapiens, UniProt Q96L34); conditions: for logFC MARK4: Accession Q96L34-1
T2 sequence (Q96L34 1-752): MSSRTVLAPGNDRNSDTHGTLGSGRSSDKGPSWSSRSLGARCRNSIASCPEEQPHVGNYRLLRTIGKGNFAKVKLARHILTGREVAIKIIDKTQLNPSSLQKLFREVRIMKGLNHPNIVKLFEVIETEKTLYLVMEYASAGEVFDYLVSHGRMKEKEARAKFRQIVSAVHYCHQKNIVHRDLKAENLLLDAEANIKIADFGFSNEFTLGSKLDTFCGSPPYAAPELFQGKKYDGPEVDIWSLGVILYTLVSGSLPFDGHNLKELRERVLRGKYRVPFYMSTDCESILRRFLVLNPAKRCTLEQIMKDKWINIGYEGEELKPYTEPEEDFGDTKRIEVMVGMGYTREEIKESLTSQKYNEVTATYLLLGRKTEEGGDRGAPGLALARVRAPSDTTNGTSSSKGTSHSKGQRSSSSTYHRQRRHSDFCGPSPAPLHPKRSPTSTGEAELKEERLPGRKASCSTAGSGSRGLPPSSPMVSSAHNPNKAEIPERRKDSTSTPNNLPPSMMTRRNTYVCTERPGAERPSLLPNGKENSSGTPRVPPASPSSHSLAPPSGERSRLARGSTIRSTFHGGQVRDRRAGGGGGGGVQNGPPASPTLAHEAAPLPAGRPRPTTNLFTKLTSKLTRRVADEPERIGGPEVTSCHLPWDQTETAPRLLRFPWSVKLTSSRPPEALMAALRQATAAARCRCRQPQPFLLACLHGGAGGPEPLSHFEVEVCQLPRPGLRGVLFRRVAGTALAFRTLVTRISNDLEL

Chain of protein kinases (human kinome) (Homo sapiens, UniProt O43683) (O43683 whole entry): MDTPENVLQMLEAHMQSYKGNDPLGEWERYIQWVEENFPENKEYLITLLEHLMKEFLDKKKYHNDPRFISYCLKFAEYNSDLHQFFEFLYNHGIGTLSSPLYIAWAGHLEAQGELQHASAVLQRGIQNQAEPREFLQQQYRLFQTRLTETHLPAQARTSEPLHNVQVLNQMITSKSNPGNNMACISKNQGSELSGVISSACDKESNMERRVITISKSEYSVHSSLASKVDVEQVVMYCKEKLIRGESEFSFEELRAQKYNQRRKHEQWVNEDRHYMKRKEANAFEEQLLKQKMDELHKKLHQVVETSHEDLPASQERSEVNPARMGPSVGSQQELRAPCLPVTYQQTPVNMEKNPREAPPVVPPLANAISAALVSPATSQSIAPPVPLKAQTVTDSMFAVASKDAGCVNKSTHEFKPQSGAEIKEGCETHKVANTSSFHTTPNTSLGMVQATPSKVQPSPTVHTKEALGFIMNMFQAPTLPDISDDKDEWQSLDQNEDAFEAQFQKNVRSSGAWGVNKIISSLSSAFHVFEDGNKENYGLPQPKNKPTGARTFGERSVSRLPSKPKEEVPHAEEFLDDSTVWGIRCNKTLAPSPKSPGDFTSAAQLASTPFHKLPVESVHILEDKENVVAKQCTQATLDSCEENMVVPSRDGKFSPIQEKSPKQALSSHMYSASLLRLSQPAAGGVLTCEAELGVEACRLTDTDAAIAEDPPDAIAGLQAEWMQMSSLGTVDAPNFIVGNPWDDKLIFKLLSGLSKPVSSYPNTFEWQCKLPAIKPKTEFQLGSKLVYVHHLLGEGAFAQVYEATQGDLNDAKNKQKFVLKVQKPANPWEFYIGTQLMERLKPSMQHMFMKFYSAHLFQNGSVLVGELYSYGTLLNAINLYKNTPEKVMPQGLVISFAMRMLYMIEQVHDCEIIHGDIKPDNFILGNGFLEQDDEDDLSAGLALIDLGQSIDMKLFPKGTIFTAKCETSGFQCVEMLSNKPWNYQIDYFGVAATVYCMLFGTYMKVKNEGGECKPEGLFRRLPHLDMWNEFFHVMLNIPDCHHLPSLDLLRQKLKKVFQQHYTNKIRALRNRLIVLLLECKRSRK
Chain of protein kinases (human kinome) (Homo sapiens, UniProt P50613) (P50613 whole entry): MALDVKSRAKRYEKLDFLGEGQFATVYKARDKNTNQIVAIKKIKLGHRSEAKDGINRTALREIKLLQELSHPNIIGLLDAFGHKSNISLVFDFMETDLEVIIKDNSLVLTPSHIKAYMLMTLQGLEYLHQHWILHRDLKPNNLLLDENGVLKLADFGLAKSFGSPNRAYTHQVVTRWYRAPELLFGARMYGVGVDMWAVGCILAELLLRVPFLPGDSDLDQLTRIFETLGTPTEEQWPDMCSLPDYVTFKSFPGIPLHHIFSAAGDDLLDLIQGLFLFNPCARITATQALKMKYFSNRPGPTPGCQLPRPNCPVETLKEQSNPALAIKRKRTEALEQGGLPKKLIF
Chain of protein kinases (human kinome) (Homo sapiens, UniProt P42684) (P42684 whole entry): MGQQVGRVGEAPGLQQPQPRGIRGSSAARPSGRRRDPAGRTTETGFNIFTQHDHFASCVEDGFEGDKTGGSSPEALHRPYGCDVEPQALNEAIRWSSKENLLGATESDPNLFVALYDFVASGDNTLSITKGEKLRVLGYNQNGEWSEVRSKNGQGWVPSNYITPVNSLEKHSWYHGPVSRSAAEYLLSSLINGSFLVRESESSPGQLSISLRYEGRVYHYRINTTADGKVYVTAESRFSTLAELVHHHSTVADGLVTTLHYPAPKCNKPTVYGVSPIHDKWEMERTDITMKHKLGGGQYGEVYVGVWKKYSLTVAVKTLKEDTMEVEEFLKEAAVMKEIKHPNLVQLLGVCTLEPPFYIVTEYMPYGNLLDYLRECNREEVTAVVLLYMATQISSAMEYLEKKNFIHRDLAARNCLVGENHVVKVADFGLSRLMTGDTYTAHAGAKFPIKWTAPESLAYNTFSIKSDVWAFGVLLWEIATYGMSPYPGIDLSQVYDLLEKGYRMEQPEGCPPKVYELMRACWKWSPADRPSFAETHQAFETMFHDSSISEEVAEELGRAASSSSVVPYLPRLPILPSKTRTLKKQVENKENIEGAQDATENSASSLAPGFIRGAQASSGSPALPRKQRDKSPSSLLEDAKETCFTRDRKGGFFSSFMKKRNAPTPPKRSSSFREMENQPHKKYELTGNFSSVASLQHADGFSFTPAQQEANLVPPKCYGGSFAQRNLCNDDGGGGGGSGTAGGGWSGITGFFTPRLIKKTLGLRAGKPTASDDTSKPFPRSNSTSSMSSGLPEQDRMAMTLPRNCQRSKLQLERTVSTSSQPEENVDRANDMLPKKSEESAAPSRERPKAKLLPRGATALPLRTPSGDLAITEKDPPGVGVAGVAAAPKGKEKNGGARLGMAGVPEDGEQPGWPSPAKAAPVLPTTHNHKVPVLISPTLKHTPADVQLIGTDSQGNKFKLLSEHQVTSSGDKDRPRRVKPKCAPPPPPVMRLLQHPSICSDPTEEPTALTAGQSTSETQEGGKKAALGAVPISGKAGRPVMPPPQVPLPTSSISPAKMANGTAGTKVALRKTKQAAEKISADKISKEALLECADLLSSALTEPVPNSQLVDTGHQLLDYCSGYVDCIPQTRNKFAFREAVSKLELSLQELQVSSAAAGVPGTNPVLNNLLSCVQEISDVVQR
Chain of protein kinases (human kinome) (Homo sapiens, UniProt Q00537) (Q00537 whole entry): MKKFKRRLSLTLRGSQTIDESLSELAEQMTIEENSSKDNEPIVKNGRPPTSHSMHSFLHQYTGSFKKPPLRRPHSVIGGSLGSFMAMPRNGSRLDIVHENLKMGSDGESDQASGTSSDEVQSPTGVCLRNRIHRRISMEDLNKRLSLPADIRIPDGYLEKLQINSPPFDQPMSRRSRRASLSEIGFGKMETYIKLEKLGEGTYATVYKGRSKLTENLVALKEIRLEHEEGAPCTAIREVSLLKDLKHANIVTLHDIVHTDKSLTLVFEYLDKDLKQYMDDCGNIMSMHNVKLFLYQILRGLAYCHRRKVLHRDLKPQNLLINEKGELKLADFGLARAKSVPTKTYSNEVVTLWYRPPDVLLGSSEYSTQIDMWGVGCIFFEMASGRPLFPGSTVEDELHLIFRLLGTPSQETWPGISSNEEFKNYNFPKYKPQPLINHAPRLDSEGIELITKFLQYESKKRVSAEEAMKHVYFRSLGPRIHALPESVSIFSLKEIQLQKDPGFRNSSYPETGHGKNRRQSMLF
Chain of protein kinases (human kinome) (Homo sapiens, UniProt P53667) (P53667 whole entry): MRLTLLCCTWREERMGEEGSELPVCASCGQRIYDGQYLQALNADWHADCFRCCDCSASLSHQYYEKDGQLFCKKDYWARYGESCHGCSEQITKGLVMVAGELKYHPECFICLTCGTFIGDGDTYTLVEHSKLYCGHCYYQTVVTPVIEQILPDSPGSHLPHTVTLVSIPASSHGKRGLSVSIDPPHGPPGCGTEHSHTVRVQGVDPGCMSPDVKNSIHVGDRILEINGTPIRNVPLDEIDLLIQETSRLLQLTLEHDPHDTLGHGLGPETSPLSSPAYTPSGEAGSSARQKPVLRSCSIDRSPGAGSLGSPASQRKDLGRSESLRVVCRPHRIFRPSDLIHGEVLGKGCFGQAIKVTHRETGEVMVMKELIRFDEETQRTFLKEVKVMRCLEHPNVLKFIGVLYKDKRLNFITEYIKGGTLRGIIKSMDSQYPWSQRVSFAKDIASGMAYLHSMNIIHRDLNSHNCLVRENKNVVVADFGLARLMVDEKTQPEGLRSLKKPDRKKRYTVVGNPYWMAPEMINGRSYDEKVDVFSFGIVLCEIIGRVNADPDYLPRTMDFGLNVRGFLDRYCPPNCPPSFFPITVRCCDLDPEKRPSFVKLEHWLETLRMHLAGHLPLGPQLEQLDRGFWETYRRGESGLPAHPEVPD
Chain of protein kinases (human kinome) (Homo sapiens, UniProt P07947) (P07947 whole entry): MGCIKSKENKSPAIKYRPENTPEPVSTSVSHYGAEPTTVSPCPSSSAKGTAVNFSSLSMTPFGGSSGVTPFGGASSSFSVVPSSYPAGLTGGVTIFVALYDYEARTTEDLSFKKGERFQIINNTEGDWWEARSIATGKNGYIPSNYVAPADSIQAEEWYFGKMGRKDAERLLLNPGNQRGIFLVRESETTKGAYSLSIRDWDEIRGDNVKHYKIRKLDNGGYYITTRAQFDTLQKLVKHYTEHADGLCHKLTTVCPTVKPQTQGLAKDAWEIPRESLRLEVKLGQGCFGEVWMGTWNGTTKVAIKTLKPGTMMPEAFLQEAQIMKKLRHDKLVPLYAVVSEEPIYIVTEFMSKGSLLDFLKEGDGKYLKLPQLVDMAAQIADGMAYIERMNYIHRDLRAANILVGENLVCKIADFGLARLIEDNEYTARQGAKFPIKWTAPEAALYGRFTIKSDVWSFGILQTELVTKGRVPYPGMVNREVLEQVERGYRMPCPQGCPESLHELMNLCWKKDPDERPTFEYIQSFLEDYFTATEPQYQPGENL

SMILES: CC(C)S(=O)(=O)c1ccccc1Nc1nc(Nc2ccc(N3CCN(CCOCCNC(=O)CNc4cccc5c4C(=O)N(C4CCC(=O)NC4=O)C5=O)CC3)cc2)ncc1Cl (stereo not shown) [SK.3.91]
- logFC CDK7 ([1]; experiment wp016): −0.5236
- logFC CDK7 ([1]; experiment wp105): −0.6307
- logFC CDK7 ([1]; experiment wp107): −0.4632
- logFC CDK7 ([1]; experiment wp114): −0.5255
- logFC CDK7 ([1]; experiment wp172): −1.186
- logFC of CDK17 ([2]; experiment wp016): −0.7341
- logFC of CDK17 ([2]; experiment wp016, 1 uM): −0.7503
- logFC of CDK17 ([2]; experiment wp103): −0.6015
- logFC of CDK17 ([2]; experiment wp105): −0.732
- logFC of CDK17 ([2]; experiment wp107): −0.6145
- logFC of CDK17 ([2]; experiment wp133, 2 hr): −0.372
- logFC of CDK17 ([2]; experiment wp133, 4 hr): −0.611
- logFC of CDK17 ([2]; experiment wp160, 4 hr): −0.3952
- logFC of CDK17 ([2]; experiment wp172): −0.7492
- logFC CDK17 (Q00537) ([2]; Experiment wp105): −0.732
- logFC CDK17 (Q00537) ([2]; experiment wp016, 1 uM): −0.7503
- logFC CDK17 (Q00537) ([2]; experiment wp016): −0.7341
- logFC CDK17 (Q00537) ([2]; experiment wp103): −0.6015
- logFC CDK17 (Q00537) ([2]; experiment wp107): −0.6145
- logFC CDK17 (Q00537) ([2]; experiment wp133, 2 hr): −0.372
- logFC CDK17 (Q00537) ([2]; experiment wp133, 4 hr): −0.611
- logFC CDK17 (Q00537) ([2]; experiment wp160, 4 hr): −0.3952
- logFC CDK17 (Q00537) ([2]; experiment wp172): −0.7492
- logFC ([3]; 1 uM): −1.077
- logFC ([3]; 2 hr): −0.3453
- logFC ([3]; 4 hr): −0.8519 and −0.7658
- logFC ABL2 (P42684) ([3]; Experiment wp107): −1.032
- logFC ABL2 (P42684) ([3]; experiment wp016): −0.4963
- logFC ABL2 (P42684) ([3]; experiment wp016, 1 uM): −1.077
- logFC ABL2 (P42684) ([3]; experiment wp133, 2 hr): −0.3453
- logFC ABL2 (P42684) ([3]; experiment wp133, 4 hr): −0.8519
- logFC ABL2 (P42684) ([3]; experiment wp160, 4 hr): −0.7658
- logFC [4]: −0.5025
- logFC ([4]; direction down): −0.5025
- logFC ([5]; experiment wp133, 1 hr): −0.4907
- logFC ([5]; experiment wp133, 2 hr): −0.4456
- logFC ([5]; experiment wp133, 4 hr): −0.5963
- logFC BUB1 (O43683) ([5]; Experiment wp133, 1 hr): −0.4907
- logFC BUB1 (O43683) ([5]; Experiment wp133, 2 hr): −0.4456
- logFC BUB1 (O43683) ([5]; Experiment wp133, 4 hr): −0.5963
- logFC LIMK1 ([6]; direction down, experiment wp103): −1.238
- logFC LIMK1 ([6]; direction down, experiment wp105): −1.464
- logFC LIMK1 ([6]; direction down, experiment wp107): −0.8704
- logFC LIMK1 ([6]; direction down, experiment wp114): −0.546
- logFC LIMK1 ([6]; direction down, experiment wp133, 1 hr): −0.4117
- logFC LIMK1 ([6]; direction down, experiment wp133, 2 hr): −0.8026
- logFC LIMK1 ([6]; direction down, experiment wp133, 4 hr): −1.371
- logFC LIMK1 ([6]; direction down, experiment wp160, 2 hr): −0.8634
- logFC LIMK1 ([6]; direction down, experiment wp160, 4 hr): −1.366
- logFC LIMK1 ([6]; direction down, experiment wp172): −1.869
- logFC LIMK1 ([6]; experiment wp103, down): −1.238
- logFC LIMK1 ([6]; experiment wp105, down): −1.464
- logFC LIMK1 ([6]; experiment wp107, down): −0.8704
- logFC LIMK1 ([6]; experiment wp114, down): −0.546
- logFC LIMK1 ([6]; experiment wp133, 1 hr, down): −0.4117
- logFC LIMK1 ([6]; experiment wp133, 2 hr, down): −0.8026
- logFC LIMK1 ([6]; experiment wp133, 4 hr, down): −1.371
- logFC LIMK1 ([6]; experiment wp160, 2 hr, down): −0.8634
- logFC LIMK1 ([6]; experiment wp160, 4 hr, down): −1.366
- logFC LIMK1 ([6]; experiment wp172, down): −1.869
- logFC STK17B (O94768) ([7]; Experiment wp016, 1 uM): −0.327
- logFC STK17B (O94768) ([7]; Experiment wp133, 4 hr): −0.545
- logFC ([7]; experiment wp016, 1 uM): −0.327
- logFC ([7]; experiment wp133, 4 hr): −0.545
- logFC MARK4 ([8]; experiment wp103): −1.326
- logFC MARK4 ([8]; experiment wp107): −1.292
- logFC MARK4 ([8]; experiment wp114): −1.3
- logFC MARK4 ([8]; experiment wp133, 2 hr): −0.6282
- logFC MARK4 ([8]; experiment wp133, 4 hr): −1.537
- logFC MARK4 ([8]; experiment wp160, 4 hr): −1.529
- logFC MARK4 (Q96L34-1) ([8]; experiment wp103): −1.326
- logFC MARK4 (Q96L34-1) ([8]; experiment wp107): −1.292
- logFC MARK4 (Q96L34-1) ([8]; experiment wp114): −1.3
- logFC MARK4 (Q96L34-1) ([8]; experiment wp133, 2 hr): −0.6282
- logFC MARK4 (Q96L34-1) ([8]; experiment wp133, 4 hr): −1.537
- logFC MARK4 (Q96L34-1) ([8]; experiment wp160, 4 hr): −1.529
